Results published in ChEMBL document CHEMBL1806490, “Benzisothiazolones as modulators of macrophage migration inhibitory factor” (Bioorg Med Chem Lett, 2011).

What was measured:
[1] = molecular target: T1, Macrophage migration inhibitory factor (Homo sapiens, UniProt P14174); test: Inhibition of human recombinant MIF tautomerase activity using 4-hydroxyphenylpyruvate as substrate
T1 sequence (P14174 whole entry): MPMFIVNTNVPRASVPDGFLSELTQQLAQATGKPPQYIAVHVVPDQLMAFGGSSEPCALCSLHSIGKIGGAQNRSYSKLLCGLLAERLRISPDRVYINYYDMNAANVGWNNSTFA

[2] = molecular target: T2, MIF/CD74 (Macrophage migration inhibitory factor and HLA-DR antigens-associated invariant chain) (Homo sapiens) (UniProt P14174+P04233); details: 78 nM
Description: Inhibition of human recombinant biotinylated MIF/CD74 ectodomain interaction at 78 nM by streptavidin alkaline phosphatase reporter system

[3] = molecular target: T2, MIF/CD74 (Macrophage migration inhibitory factor and HLA-DR antigens-associated invariant chain) (Homo sapiens); details: 4 nM
Description: Inhibition of human recombinant biotinylated MIF/CD74 ectodomain interaction at 4 nM by streptavidin alkaline phosphatase reporter system

Structure (SMILES)	IC50 [1]	other results
COc1cccc(-n2sc3cc(F)ccc3c2=O)c1	25 µM	–
COc1cccc(-n2sc3c(F)cccc3c2=O)c1	8 µM	–
O=c1c2ccc(F)cc2sn1-c1cccc(Cl)c1	5 µM	–
O=c1c2cc(F)c(F)cc2sn1-c1ccc(Cl)cc1	4.9 µM	–
COCc1cccc(-n2sc3cc(F)ccc3c2=O)c1	2.4 µM	–
O=c1c2ccc(F)c(F)c2sn1-c1ccc(Cl)cc1	5.6 µM	–
O=c1c2cc(F)ccc2sn1-c1ccc(Cl)cc1	5.6 µM	–
N#Cc1ccc(-n2sc3cc(F)ccc3c2=O)cc1	–	inhibition [2]: 49%
O=c1c2cc([N+](=O)[O-])ccc2sn1-c1ccc(Cl)cc1	6.2 µM	–
COc1ccc(-n2sc3ccc(F)cc3c2=O)cc1	6.5 µM	–
O=c1c2ccc(O)cc2sn1-c1ccc(Cl)cc1	–	inhibition [3]: 23%

Now from value to compound, other results behind:

IC50 [1]	Structure (SMILES)	other results
19 µM	N#Cc1ccc2sn(-c3ccc(Cl)cc3)c(=O)c2c1	–
11 µM	O=c1c2ccc(Br)cc2sn1-c1ccc(Cl)cc1	–
3.1 µM	N#Cc1ccc2c(=O)n(-c3ccc(Cl)cc3)sc2c1	–
5.9 µM	O=c1c2cccc(F)c2sn1-c1cccc(O)c1	–
7.9 µM	O=c1c2cc(Br)ccc2sn1-c1ccc(Cl)cc1	–
2.3 µM	CC(=O)OCc1cccc(-n2sc3cc(F)ccc3c2=O)c1	–
6.6 µM	O=c1c2cccc(Cl)c2sn1-c1ccc(Cl)cc1	–
2.8 µM	COc1cccc(-n2sc3ccc(F)cc3c2=O)c1	–
2.8 µM	O=c1c2cccc(F)c2sn1-c1ccc(Cl)cc1	–
